In US10556008B2, “Methods of treatment of keloid using an anti-VEGF agent” (priority 2012, dated 2020):
Entries after “also recorded” stand apart in the source; their conditions may differ.

Tests used:
recurrent pterygium = details: bevacizumab not as part of the combination therapy; temporarily = e.g. 6 months or less; cited from earlier work
pterygium recurrence = test: Treatment of pterygium recurrence after pterygiectomy with bevacizumab, with or without combination therapy (Patients 1-5); type: in vivo, human; details: for Time without recurrence of pterygium: steroid and NSAID; for No pterygium regrowth observed as of (time after surgery): after third surgical removal and conjunctival grafting; for No pterygium regrowth observed as of (time after surgery) / No regrowth of pterygium observed as of (time after surgery): bevacizumab injections, NSAID eye drops; for No regrowth of pterygium observed as of (time after surgery): steroid eye drops
From the text: A topical anesthetic (proparacaine 0.5% eye drops or Alcaine manufactured by Alcon Laboratories Inc.) was applied to the eye following recent pterygiectomy (from ˜5 days to 2 months following surgery). The patients were examined to identify vascular growth on eye conjunctiva. […] If blood was present (indicating presence of blood vessel), the syringe needle was withdrawn. […] If bleeding occurred (e.g., in the form of subconjunctival or subcutaneous hematoma), tamponade with Q-Tips® was performed until bleeding stopped; then injection was resumed.
Anti-inflammatory steroid drops (prednisolone acetate 1% (Allergan)) were given for 6 weeks with frequency range from once a day to 4 times a day (every 6 hours) to every hour (24 drops/day). NSAID eye drops (Diclofenac 0.1% (Bausch and Lomb)) drops (1 mg/mL to 100 mg/mL) were given multiple times, 4 times a day every 6 hours for 3 to 6 months.
Patients were followed up to monitor for appearance of new blood vessel growth in the eye.
Five patients (Patients 1-5) underwent surgery to remove primary pterygium (pterygiectomy) from the cornea of one or both eyes followed by conjunctival grafting were treated as described below.

[1] = commercially available topical steroids (skin); cited from earlier work

**Q.** Which “Effect on recurrent pterygium reported in the literature” value (recurrent pterygium) does the source give for “Bevacizumab: 149-Kd full length humanized anti-vascular endothelial growth factor (anti-VEGF) antibody” here?
**A.** not effective or only temporarily effective; also recorded: temporary treatment

**Q.** And the “Time without recurrence of pterygium” value (pterygium recurrence; FIG. 2 (Patient 2), combination therapy of bevacizumab)?
**A.** > 8 months

**Q.** And the “Time without recurrence of pterygium” value (pterygium recurrence; FIG. 4 (Patient 4), combination therapy of bevacizumab)?
**A.** > 9 months

**Q.** And the “Time without recurrence of pterygium” value (pterygium recurrence; FIG. 5 (Patient 5), combination therapy of bevacizumab)?
**A.** > 3 months

**Q.** And the “Time without recurrence of pterygium” value (pterygium recurrence; FIGS. 3A, 3B (Patient 3), combination therapy of bevacizumab)?
**A.** > 6 months

**Q.** And the “Pterygium Recurrence” value (pterygium recurrence; Patient 1, Right eye, bevacizumab + steroid (injected and/or eye drops) + topical NSAID eye drops)?
**A.** No

**Q.** What about the “No pterygium regrowth observed as of (time after surgery)” value (pterygium recurrence; Patient 1 right eye, bevacizumab+Kenalog injection) of the same compound?
**A.** about 520 days

**Q.** And the “Pterygium Recurrence” value (pterygium recurrence; Patient 2, Left eye, bevacizumab + steroid (injected and/or eye drops) + topical NSAID eye drops)?
**A.** No

**Q.** What about the “No pterygium regrowth observed as of (time after surgery)” value (pterygium recurrence; Patient 2 left eye, bevacizumab and Kenalog injections) of the same compound?
**A.** about 240 days

**Q.** And the “Pterygium recurrence after bevacizumab injection alone” value (pterygium recurrence; Patient 2 left eye, single bevacizumab injection on Day 17 after second surgical removal, no steroid or NSAID)?
**A.** further recurrence of the pterygium

**Q.** What about the “Pterygium Recurrence” value (pterygium recurrence; Patient 3 (number not printed in row), Left Eye, bevacizumab + steroid (Kenalog injection), no NSAID) of the same compound?
**A.** completely regrew and Yes

**Q.** And the “Pterygium Recurrence” value (pterygium recurrence; Patient 3 (number not printed in row), Right Eye, bevacizumab + steroid + topical NSAID eye drops)?
**A.** No

**Q.** What about the “No regrowth of pterygium observed as of (time after surgery)” value (pterygium recurrence; Patient 3 right eye, after surgical removal and amniotic membrane grafting) of the same compound?
**A.** about 130 days

**Q.** What about the “Pterygium Recurrence” value (pterygium recurrence; Patient 4, Right Eye, bevacizumab + steroid + topical NSAID eye drops) of the same compound?
**A.** No

**Q.** And the “No regrowth of pterygium observed as of (time after surgery)” value (pterygium recurrence; Patient 4 right eye, after first surgical procedure, bevacizumab and Kenalog injections)?
**A.** about 250 days

**Q.** And the “Pterygium Recurrence” value (pterygium recurrence; Patient 5, Right Eye, bevacizumab + steroid + topical NSAID eye drops)?
**A.** No

**Q.** What about the “Pterygium regrowth (overall conclusion)” value (pterygium recurrence; combination therapy of bevacizumab, anti-inflammatory steroid (injected or topical) and topical NSAID, Patients 1-5) of the same compound?
**A.** inhibited

**Q.** What about the “Combination therapy compared with bevacizumab alone” value (pterygium recurrence; combination therapy of bevacizumab, anti-inflammatory steroid and topical NSAID vs bevacizumab alone) of the same compound?
**A.** superior

**Q.** With `CC(=O)OCC(=O)[C@@]12OC3(CCCC3)O[C@@H]1C[C@H]1[C@@H]3CCC4=CC(=O)C=C[C@]4(C)[C@@]3(F)[C@@H](O)C[C@@]12C` [Amcinonide] as the compound, how does the Potency [1] read?
**A.** High

**Q.** For `CCCCC(=O)O[C@]1(C(=O)CO)[C@@H](C)C[C@H]2[C@@H]3CCC4=CC(=O)C=C[C@]4(C)[C@@]3(F)[C@@H](O)C[C@@]21C` [Betamethasone valerate], which Potency [1] is on record?
**A.** Medium-Low
